Data reported in patent US20250122171A1, “Substituted Amine Compounds, Compositions and Methods of Use” (Deep Apple Therapeutics, Inc., priority 2023, published 2025).

The molecules below were run against T1, human MRGPRX2 (Homo sapiens, UniProt Q96LB1) (assay: MRGPRX2 Activity Assay (IP-1 HTRF, antagonist mode)). Conditions: FlpIn TRex-MRGPRX2-HEK293 cells; versus 1 μM Cortistatin-14 agonist; 30 minutes preincubation.
T1 construct: expressed in transfected cells; host or cells: FlpIn TRex HEK293 (TRex-MRGPRX2-HEK), doxycycline-induced
T1 sequence (Q96LB1 1-330): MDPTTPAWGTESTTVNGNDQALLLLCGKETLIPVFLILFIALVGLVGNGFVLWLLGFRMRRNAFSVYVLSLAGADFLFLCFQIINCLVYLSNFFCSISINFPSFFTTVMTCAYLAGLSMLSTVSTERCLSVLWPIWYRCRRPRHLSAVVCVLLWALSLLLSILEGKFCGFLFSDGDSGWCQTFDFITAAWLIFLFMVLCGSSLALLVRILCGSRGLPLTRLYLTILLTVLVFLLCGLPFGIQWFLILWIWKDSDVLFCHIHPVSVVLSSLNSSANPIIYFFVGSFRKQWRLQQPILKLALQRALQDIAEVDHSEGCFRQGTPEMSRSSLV
Format: cell-based
Description: FlpIn TRex-MRGPRX2-HEK293 cells (herein TRex-MRPGRX2-HEK) stably transfected to express human MRGPRX2 were maintained at 37° C. with 5% CO2 and grown in DMEM supplemented with 10% FBS, 1% L-Glutamate, 1% penicillin/streptomycin, 100 ug/mL Hygromycin B, and 15 ug/mL Blasticidin.
GOI (MRGPRX2) expression was induced with 100 ng/mL of Doxycycline 18-24 hours prior to experiment, in flask. On the day of experiment, cells were lifted with TripLE Express and seeded in 384-well white walled opaque bottomed, assay plates, at 8,000 cells per well in 5 uL freshly made assay buffer (HBSS, 20 mM HEPES, 0.1% BSA and 10 mM LiCl). Compounds solubilized in 100% DMSO at 30 mM were serially diluted (1:4) first in 100% DMSO, and an intermediate plate of assay buffer was used to establish a final top concentration of 30 uM (in assay plate). Final DMSO concentration was kept constant at 1% across assay plates. […], at 30 mM stock concentration was solubilized in HBSS+0.1% BSA, stored at −20° C. in 5 μL aliquots and discarded after one freeze-thaw cycle. […].
Antagonist equilibrium was established with 30 minutes preincubation, followed by no wash, direct addition, and stimulation of agonist for 1 hour at 37° C./5% CO2. IP-1 standards and HTRF detection reagents were added according to the IP-one Gq kit protocol purchased from CisBio (part number 62IPAPEJ). The plate was read on an EnVision XCite plate reader. The HTRF ratio was then calculated from raw data (channel1/channel2×10,000) and analyzed using either GraphPad Prism or a custom Python script to calculate IC50 using Log[Antagonist] vs. response (4 parameter) nonlinear regression.

First: C[C@@H](C(=O)Nc1cn2c(n1)CC[C@@H]2c1cc(F)cc(F)c1)N1CCC(F)(F)[C@H](c2ccc(=O)n(C)c2)C1 (single isomer, unassigned) [Compound 533]
Second: C[C@@H](C(=O)Nc1cn2c(n1)CC[C@@H]2c1cc(F)cc(F)c1)N1CCC(F)(F)[C@@H](c2cc[n+]([O-])c(CN3CCC(F)(F)CC3)c2)C1 (single isomer, unassigned) [Compound 534]
The IC50 of the first is lower: 18 nM for the first, over 30000 nM for the second.

First: C[C@@H](C(=O)Nc1cn2c(n1)CC[C@@H]2c1cc(F)cc(F)c1)N1CCC(F)(F)[C@H](c2cc[n+]([O-])c(CN3CCC(F)(F)CC3)c2)C1 (single isomer, unassigned) [Compound 535]
Second: C[C@@H](C(=O)Nc1cc2n(n1)CC[C@@H]2c1cc(F)cc(F)c1)N1CCC(F)(F)[C@@H](c2cc[n+]([O-])cc2)C1 (single isomer, unassigned) [Compound 549]
The IC50 of the first is 14-fold lower: 31 nM for the first, 439 nM for the second.

First: C[C@@H](C(=O)Nc1cc2n(n1)CC[C@H]2c1cc(F)cc(F)c1)N1CCC(F)(F)[C@@H](c2cc[n+]([O-])cc2)C1 (single isomer, unassigned) [Compound 550]
Second: C[C@@H](C(=O)Nc1cn(Cc2cc(F)c(Cl)c(F)c2)cn1)N1CCC(F)(F)[C@@H](c2cc[n+]([O-])cc2)C1 [Compound 44, 4-((S)-1-((S)-1-((1-(4-chloro-3,5-difluorobenzyl)-1H-imidazol-4-yl)amino)-1-oxopropan-2-yl)-4,4-difluoropiperidin-3-yl)pyridine 1-oxide]
The IC50 of the first is 40-fold lower: 6 nM for the first, 241 nM for the second. The first is the more potent here.

Going from `O=C(Nc1cn(Cc2cc(F)cc(F)c2)cn1)[C@H]1C(F)(F)C12CCC2` [Compound 30, (S)—N-(1-(3,5-difluorobenzyl)-1H-imidazol-4-yl)-2,2-difluorospiro[2.3]hexane-1-carboxamide] to `C[C@@H](C(=O)Nc1cn(Cc2cccc(F)c2)cn1)N1CCC(F)(F)[C@@H](c2cc[n+]([O-])cc2)C1` [Compound 38, 4-((S)-4,4-difluoro-1-((S)-1-((1-(3-fluorobenzyl)-1H-imidazol-4-yl)amino)-1-oxopropan-2-yl)piperidin-3-yl)pyridine 1-oxide], the IC50 falls from 258 nM to 93 nM (2.8-fold).

Going from `C[C@@H](C(=O)Nc1cn(Cc2ccc(Cl)cc2F)cn1)N1CCC(F)(F)[C@@H](c2cc[n+]([O-])cc2)C1` [Compound 31, 4-((S)-1-((S)-1-((1-(4-chloro-2-fluorobenzyl)-1H-imidazol-4-yl)amino)-1-oxopropan-2-yl)-4,4-difluoropiperidin-3-yl)pyridine 1-oxide] to `C[C@@H](C(=O)Nc1cn(Cc2cc(Cl)ccc2F)cn1)N1CCC(F)(F)[C@@H](c2cc[n+]([O-])cc2)C1` [Compound 33, 4-((S)-1-((S)-1-((1-(5-chloro-2-fluorobenzyl)-1H-imidazol-4-yl)amino)-1-oxopropan-2-yl)-4,4-difluoropiperidin-3-yl)pyridine 1-oxide], the IC50 falls from 361 nM to 30 nM (12-fold). The second is the more potent here.

First: C[C@@H](C(=O)Nc1cn(Cc2cc(F)c(F)c(F)c2F)cn1)N1CCC(F)(F)[C@@H](c2cc[n+]([O-])cc2)C1 [Compound 32, 4-[(3S)-4,4-difluoro-1-[(1S)-1-({1-[(2,3,4,5-tetrafluorophenyl)methyl]imidazol-4-yl}carbamoyl)ethyl]piperidin-3-yl]pyridin-1-ium-1-olate]
Second: C[C@@H](C(=O)Nc1cn(Cc2ccc(F)c(F)c2F)cn1)N1CCC(F)(F)[C@@H](c2cc[n+]([O-])cc2)C1 [Compound 42, 4-((S)-4,4-difluoro-1-((S)-1-oxo-1-((1-(2,3,4-trifluorobenzyl)-1H-imidazol-4-yl)amino)propan-2-yl)piperidin-3-yl)pyridine 1-oxide]
The IC50 of the first is 1.6-fold lower: 104 nM for the first, 169 nM for the second. The first is the more potent here.

Going from `C[C@@H](C(=O)Nc1cn(Cc2ccc(F)cc2)cn1)N1CCC(F)(F)[C@@H](c2cc[n+]([O-])cc2)C1` [Compound 36, 4-((S)-4,4-difluoro-1-((S)-1-((1-(4-fluorobenzyl)-1H-imidazol-4-yl)amino)-1-oxopropan-2-yl)piperidin-3-yl)pyridine 1-oxide] to `C[C@@H](C(=O)Nc1cn(Cc2ccc(Cl)c(F)c2)cn1)N1CCC(F)(F)[C@@H](c2cc[n+]([O-])cc2)C1` [Compound 47, 4-((S)-1-((S)-1-((1-(4-chloro-3-fluorobenzyl)-1H-imidazol-4-yl)amino)-1-oxopropan-2-yl)-4,4-difluoropiperidin-3-yl)pyridine 1-oxide], the IC50 rises from 209 nM to 775 nM (3.7-fold). The first is the more potent here.

`C[C@@H](C(=O)Nc1cn(Cc2ccccc2F)cn1)N1CCC(F)(F)[C@@H](c2cc[n+]([O-])cc2)C1` [Compound 37, 4-((S)-4,4-difluoro-1-((S)-1-((1-(2-fluorobenzyl)-1H-imidazol-4-yl)amino)-1-oxopropan-2-yl)piperidin-3-yl)pyridine 1-oxide] and `C[C@@H](C(=O)Nc1cn(Cc2cccc(F)c2F)cn1)N1CCC(F)(F)[C@@H](c2cc[n+]([O-])cc2)C1` [Compound 49, 4-((S)-1-((S)-1-((1-(2,3-difluorobenzyl)-1H-imidazol-4-yl)amino)-1-oxopropan-2-yl)-4,4-difluoropiperidin-3-yl)pyridine 1-oxide] are within 1.5-fold of each other in IC50: 54 nM for the first, 53 nM for the second.

First: C[C@@H](C(=O)Nc1cn(Cc2cc(F)ccc2F)cn1)N1CCC(F)(F)[C@@H](c2cc[n+]([O-])cc2)C1 [Compound 40, 4-((S)-1-((S)-1-((1-(2,5-difluorobenzyl)-1H-imidazol-4-yl)amino)-1-oxopropan-2-yl)-4,4-difluoropiperidin-3-yl)pyridine 1-oxide]
Second: C[C@@H](C(=O)Nc1cn(Cc2ccc(F)cc2Cl)cn1)N1CCC(F)(F)[C@@H](c2cc[n+]([O-])cc2)C1 [Compound 48, 4-((S)-1-((S)-1-((1-(2-chloro-4-fluorobenzyl)-1H-imidazol-4-yl)amino)-1-oxopropan-2-yl)-4,4-difluoropiperidin-3-yl)pyridine 1-oxide]
The IC50 of the first is 8.6-fold lower: 25 nM for the first, 214 nM for the second.

Going from `C[C@@H](C(=O)Nc1cn(Cc2ccccc2C(F)(F)F)cn1)N1CCC(F)(F)[C@@H](c2cc[n+]([O-])cc2)C1` [Compound 41, 4-((S)-4,4-difluoro-1-((S)-1-oxo-1-((1-(2-(trifluoromethyl)benzyl)-1H-imidazol-4-yl)amino)propan-2-yl)piperidin-3-yl)pyridine 1-oxide] to `C[C@@H](C(=O)Nc1cn(Cc2cccc(Cl)c2)cn1)N1CCC(F)(F)[C@@H](c2cc[n+]([O-])cc2)C1` [Compound 43, 4-((S)-1-((S)-1-((1-(3-chlorobenzyl)-1H-imidazol-4-yl)amino)-1-oxopropan-2-yl)-4,4-difluoropiperidin-3-yl)pyridine 1-oxide], the IC50 falls from 269 nM to 131 nM (2.1-fold). The second is the more potent here.

Going from `C[C@@H](C(=O)Nc1cn(Cc2cc(F)c(Cl)cc2F)cn1)N1CCC(F)(F)[C@@H](c2cc[n+]([O-])cc2)C1` [Compound 45, 4-((S)-1-((S)-1-((1-(4-chloro-2,5-difluorobenzyl)-1H-imidazol-4-yl)amino)-1-oxopropan-2-yl)-4,4-difluoropiperidin-3-yl)pyridine 1-oxide] to `C[C@@H](C(=O)Nc1cn(Cc2ccc(F)c(F)c2)cn1)N1CCC(F)(F)[C@@H](c2cc[n+]([O-])cc2)C1` [Compound 46, 4-((S)-1-((S)-1-((1-(3,4-difluorobenzyl)-1H-imidazol-4-yl)amino)-1-oxopropan-2-yl)-4,4-difluoropiperidin-3-yl)pyridine 1-oxide], the IC50 falls from 885 nM to 210 nM (4.2-fold).
